The structures appear in SMILES notation. Like-named read-outs stand apart in the source and are kept apart here. Bounds are passed on as bounds.

For series [1] the following is noted: pure lipid; cited from earlier work.
For series [2], the system named is human colon tumor cell lines. Description: In vitro cytotoxicity survey, panel of human colon tumor cell lines. The format is cell-based. To be noted: HT-29, all cell lines tested except HT29, 72 h. The protocol:
(§1) A number of commercially available and privately-acquired tumor cell lines were initially surveyed for their sensitivity to various platinum agents, including oxaliplatin. […] The cell lines were also surveyed for sensitivity to 5FU. […] Additionally, literature survey was conducted in search of in vitro-generated oxaliplatin-resistant colorectal cell lines to potentially include pre-clinical pharmacology studies in an effort to show improved sensitivity of these cells to a liposomal vs. free oxaliplatin treatment. From this survey, […] other oxaliplatin-resistant colorectal tumor lines were identified; HT29 (Plascencia et al., 2006; Yang et al., 2006), and DLD-1 (Kashiwagi et al., 2011).

Series [3] concerns HT29. Put plainly: In vitro cytotoxicity, HT29. Format: cell-based, human. The protocol:
A number of commercially available and privately-acquired tumor cell lines were initially surveyed for their sensitivity to various platinum agents, including oxaliplatin. […] The cell lines were also surveyed for sensitivity to 5FU.
Two studies of the novel liposome formulation containing oxaliplatin were conducted in this tumor model.

Series [4] has as its system KB (epidermoid oral carcinoma human tumor) cells. Description: In vitro cytotoxicity, KB cells.
Experimental: (§2) Prior to initiation of this study, oxaliplatin was evaluated for drug tolerance in non-tumor bearing immunodeficient mice.
The test system of series [5] is KB xenograft tumors. Description: Single-dose efficacy in mice bearing KB xenografts. The format is in vivo, nude mice. To be noted: 15 mg/kg. The source says: One-way ANOVA followed by Neuman-Keuls post hoc test.
The test system of series [6] is HCT-116 cells. Put plainly: In vitro cytotoxicity survey, HCT-116. The format is cell-based, human. Conditions: 72 h. The protocol: as §1
Series [7] can be described thus: Drug tolerance in non-tumor bearing immunodeficient mice. Format: in vivo.
Experimental: as §2

Turning to `CCCCCCCC/C=C\CCCCCCCC(=O)O[C@H](COC(=O)CCCCCCCCCCCCCCC)COP(=O)([O-])OCC[N+](C)(C)C` [POPC, 1-palmitoyl-2-oleoyl-sn-glycero-3-phosphocholine], in series [1], the “gel-liquid crystalline thermal transition temperature” value was “around −2 °C”.

Take `O=c1[nH]cc(F)c(=O)[nH]1` [Sample 5FU, 5-fluorouracil]: the IC50 in series [2] was 7 to 10 µM; in series [3] (Homo sapiens, HT-29, HT29, 72 h), greater than 50 µM.

Regarding `N.N.[Cl][Pt][Cl]` [cisplatin], the IC50 in series [4] (read-out: sensitivity (IC50), KB cell-line) turned out to be 4 µM.

Take `O=C1[O][Pt]2([NH][C@@H]3CCCC[C@H]3[NH]2)[O]C1=O` [oxaliplatin, [(1R,2R)-cyclohexane-1,2-diamine](ethanedioato-O,O′)platinum(II)]: the “tumor growth and survival compared to saline control (in words)” value in series [5] was “did not significantly inhibit tumor growth or increase survival”. In addition, the “Median Survival” value in series [5] (KB xenografts) is 25.5. The TGI in series [5] (KB xenografts) is given as 0%. Further, the IC50 in series [4] (KB cell-line, 72 h) was 5.4 µM; in series [4] (KB cells, cytotoxicity testing prior to injection), 5.3 µM; in series [6], 400 nM; in series [3] (HT29 and several other cell lines, 72 h) it was 5 to 10 µM; in series [3] (HT29 cell line used in the present studies), 5.4 µM. In addition, the “drug tolerance (in words)” value in series [7] (doses above 15 mg/kg (i.e., 20 mg/kg)) is “dehydration and unacceptable gross body weight losses”. The “maximum tolerated dose (MTD)” value in series [7] (mice) came to 15 mg/kg.

A word on the IC50: it is the concentration that inhibits the measured activity by half. What is called TGI is how far tumour growth fell short of that in controls. The low end stands for a weaker effect on the tumour, the high end for a stronger effect on the tumour.

Values taken from patent publication US20140271820A1, “LIPOSOME OXALIPLATIN COMPOSITIONS FOR CANCER THERAPY” (priority 2013, published 2014).
